Measured values published in the NIST ThermoML archive (doi:10.1016/j.fluid.2018.08.001).
± gives the expanded uncertainty stated by the source.

Conditions: 303.15 K, 101.33 kPa, Liquid; for viscosity: Capillary tube (Ostwald / Ubbelohde) method; for speed of sound: Linear variable-path acoustic interferometer; for mass density: Pycnometric method

Structure (SMILES) | viscosity [mPa·s] | speed of sound [m/s] | mass density [kg/m3]
C1COCCO1 [1,4-dioxane] | 1.08 ± 0.04 | 1321 ± 1.9 | 1022.4 ± 1.1
NCc1ccccc1 [benzylamine] | 1.43 ± 0.04 | 1538.2 ± 2.1 | 975.6 ± 1.1
CCCCCC [hexane] | 0.36 ± 0.04 | 1051.2 ± 1.9 | 652.9 ± 1
C1CCOC1 [tetrahydrofuran] | 0.46 ± 0.04 | 1252.2 ± 1.9 | 876.5 ± 1.1
